Reference: ChEMBL document CHEMBL1146788, “Synthesis and biological evaluation of novel beta-carboline derivatives as Tat-TAR interaction inhibitors” (Bioorg Med Chem Lett, 2004)

Legend:
MT4 [1] = test: Concentration required to protect MT-4 cells against the cytopathogenicity of HIV-1 IIIB; format: functional, cell-based; conditions: Homo sapiens
MT4 [2] = test: Concentration required to inhibit the proliferation of uninfected MT-4 cells; format: functional; conditions: Homo sapiens

| SMILES | EC50 (MT4 [1]) [µM] | CC50 (MT4 [2]) [µM] |
| --- | --- | --- |
| Cc1[nH]c(C(=O)NCCCN)cc2c3ccccc3nc1-2 | > 100 | > 100 |
| N=C(N)NCCCNC(=O)c1cc2c3ccccc3nc-2c[nH]1 | ≥ 50 | > 1000 |
| Cc1[nH]c(C(=O)NCCCN=C(N)N)cc2c3ccccc3nc1-2 | ≥ 50 | > 100 |
| NCCCNC(=O)c1cc2c3ccccc3nc-2c[nH]1 | > 1000 | > 1000 |
